Experimental data from ChEMBL document CHEMBL3785028 (J Med Chem, 2016).

Assays:
Format in all cases: ADME, organism-based
Conditions in all cases: in vivo
[1] = Half life in rat at 2 mg/kg, po
[2] = AUC(0 to infinity) in mouse at 30 mg/kg, po; parameters: dose 30 mg/kg, route oral, time infinity
[3] = Oral bioavailability in rat at 2 mg/kg
[4] = Clearance in rat at 1 mg/kg, iv
[5] = Volume of distribution in rat at 1 mg/kg, iv
[6] = Half life in mouse at 30 mg/kg, po
[7] = Half life in rat at 1 mg/kg, iv
[8] = AUC in rat at 2 mg/kg, po
[9] = Cmax in rat at 2 mg/kg, po; parameters: dose 2 mg/kg, route oral

| half-life [1] | AUC(0-inf) [2] | bioavailability [3] | clearance [4] | Vd [5] | half-life [6] | half-life [7] | AUC [8] | Cmax [9] | SMILES |
| --- | --- | --- | --- | --- | --- | --- | --- | --- | --- |
| 1.9 h | 2000 ng·h/mL | 75% | 57 mL/min/kg | 2.2 L/kg | 1.5 h | 0.85 h | – | – | CN1C(=O)[C@@H](NC(=O)c2cc(Cc3ccccc3)on2)CNc2ccccc21 |
| 2.9 h | – | – | – | – | – | – | 2200 ng·h/mL | 810 ng/mL | O=C(N[C@H]1COc2ccccc2NC1=O)c1cc(Cc2ccccc2)on1 |
